Experimental data published in ChEMBL document CHEMBL1146847, “Design and synthesis of potent, non-peptidic inhibitors of HPTPbeta” (Bioorg Med Chem Lett, 2006).

Columns and labels:
[1] = target: Receptor-type tyrosine-protein phosphatase beta (Homo sapiens, UniProt P23467)
[2] = target: T1, Tyrosine-protein phosphatase non-receptor type 2 (Homo sapiens, UniProt P17706); assay: Inhibition of TCPTP38
T1 sequence (P17706 whole entry): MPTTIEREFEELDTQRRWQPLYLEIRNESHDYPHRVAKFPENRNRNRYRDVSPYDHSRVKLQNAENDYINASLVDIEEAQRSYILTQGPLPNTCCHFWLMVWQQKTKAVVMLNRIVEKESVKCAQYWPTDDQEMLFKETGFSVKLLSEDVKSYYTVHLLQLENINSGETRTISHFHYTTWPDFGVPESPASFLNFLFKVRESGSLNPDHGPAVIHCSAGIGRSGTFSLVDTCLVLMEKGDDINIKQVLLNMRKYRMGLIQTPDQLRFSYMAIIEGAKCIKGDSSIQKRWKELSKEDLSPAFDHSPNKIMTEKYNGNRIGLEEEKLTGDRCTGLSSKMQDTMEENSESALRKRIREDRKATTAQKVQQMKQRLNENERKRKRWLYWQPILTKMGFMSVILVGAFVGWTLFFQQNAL

[3] = target: T2, Tyrosine-protein phosphatase non-receptor type 1 (Homo sapiens, UniProt P18031); assay: Inhibition of PTP1B
T2 sequence (P18031 whole entry): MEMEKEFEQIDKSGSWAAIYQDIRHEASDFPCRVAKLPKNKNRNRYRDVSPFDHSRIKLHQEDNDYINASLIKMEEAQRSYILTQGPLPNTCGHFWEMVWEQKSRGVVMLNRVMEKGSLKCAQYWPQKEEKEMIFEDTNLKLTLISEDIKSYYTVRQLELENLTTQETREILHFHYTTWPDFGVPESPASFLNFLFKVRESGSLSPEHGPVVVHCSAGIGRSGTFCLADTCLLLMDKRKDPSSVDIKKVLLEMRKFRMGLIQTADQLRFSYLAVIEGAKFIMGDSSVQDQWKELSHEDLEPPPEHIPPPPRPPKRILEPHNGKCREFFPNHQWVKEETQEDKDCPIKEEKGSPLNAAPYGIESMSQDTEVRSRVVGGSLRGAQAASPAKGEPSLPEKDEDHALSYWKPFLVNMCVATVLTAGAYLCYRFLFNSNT

[4] = target: Receptor-type tyrosine-protein phosphatase mu (Homo sapiens, UniProt P28827); assay: Inhibition of HPTP mu
[5] = target: T3, Receptor-type tyrosine-protein phosphatase F (Homo sapiens, UniProt P10586); assay: Inhibition of LAR2
T3 sequence (P10586 whole entry): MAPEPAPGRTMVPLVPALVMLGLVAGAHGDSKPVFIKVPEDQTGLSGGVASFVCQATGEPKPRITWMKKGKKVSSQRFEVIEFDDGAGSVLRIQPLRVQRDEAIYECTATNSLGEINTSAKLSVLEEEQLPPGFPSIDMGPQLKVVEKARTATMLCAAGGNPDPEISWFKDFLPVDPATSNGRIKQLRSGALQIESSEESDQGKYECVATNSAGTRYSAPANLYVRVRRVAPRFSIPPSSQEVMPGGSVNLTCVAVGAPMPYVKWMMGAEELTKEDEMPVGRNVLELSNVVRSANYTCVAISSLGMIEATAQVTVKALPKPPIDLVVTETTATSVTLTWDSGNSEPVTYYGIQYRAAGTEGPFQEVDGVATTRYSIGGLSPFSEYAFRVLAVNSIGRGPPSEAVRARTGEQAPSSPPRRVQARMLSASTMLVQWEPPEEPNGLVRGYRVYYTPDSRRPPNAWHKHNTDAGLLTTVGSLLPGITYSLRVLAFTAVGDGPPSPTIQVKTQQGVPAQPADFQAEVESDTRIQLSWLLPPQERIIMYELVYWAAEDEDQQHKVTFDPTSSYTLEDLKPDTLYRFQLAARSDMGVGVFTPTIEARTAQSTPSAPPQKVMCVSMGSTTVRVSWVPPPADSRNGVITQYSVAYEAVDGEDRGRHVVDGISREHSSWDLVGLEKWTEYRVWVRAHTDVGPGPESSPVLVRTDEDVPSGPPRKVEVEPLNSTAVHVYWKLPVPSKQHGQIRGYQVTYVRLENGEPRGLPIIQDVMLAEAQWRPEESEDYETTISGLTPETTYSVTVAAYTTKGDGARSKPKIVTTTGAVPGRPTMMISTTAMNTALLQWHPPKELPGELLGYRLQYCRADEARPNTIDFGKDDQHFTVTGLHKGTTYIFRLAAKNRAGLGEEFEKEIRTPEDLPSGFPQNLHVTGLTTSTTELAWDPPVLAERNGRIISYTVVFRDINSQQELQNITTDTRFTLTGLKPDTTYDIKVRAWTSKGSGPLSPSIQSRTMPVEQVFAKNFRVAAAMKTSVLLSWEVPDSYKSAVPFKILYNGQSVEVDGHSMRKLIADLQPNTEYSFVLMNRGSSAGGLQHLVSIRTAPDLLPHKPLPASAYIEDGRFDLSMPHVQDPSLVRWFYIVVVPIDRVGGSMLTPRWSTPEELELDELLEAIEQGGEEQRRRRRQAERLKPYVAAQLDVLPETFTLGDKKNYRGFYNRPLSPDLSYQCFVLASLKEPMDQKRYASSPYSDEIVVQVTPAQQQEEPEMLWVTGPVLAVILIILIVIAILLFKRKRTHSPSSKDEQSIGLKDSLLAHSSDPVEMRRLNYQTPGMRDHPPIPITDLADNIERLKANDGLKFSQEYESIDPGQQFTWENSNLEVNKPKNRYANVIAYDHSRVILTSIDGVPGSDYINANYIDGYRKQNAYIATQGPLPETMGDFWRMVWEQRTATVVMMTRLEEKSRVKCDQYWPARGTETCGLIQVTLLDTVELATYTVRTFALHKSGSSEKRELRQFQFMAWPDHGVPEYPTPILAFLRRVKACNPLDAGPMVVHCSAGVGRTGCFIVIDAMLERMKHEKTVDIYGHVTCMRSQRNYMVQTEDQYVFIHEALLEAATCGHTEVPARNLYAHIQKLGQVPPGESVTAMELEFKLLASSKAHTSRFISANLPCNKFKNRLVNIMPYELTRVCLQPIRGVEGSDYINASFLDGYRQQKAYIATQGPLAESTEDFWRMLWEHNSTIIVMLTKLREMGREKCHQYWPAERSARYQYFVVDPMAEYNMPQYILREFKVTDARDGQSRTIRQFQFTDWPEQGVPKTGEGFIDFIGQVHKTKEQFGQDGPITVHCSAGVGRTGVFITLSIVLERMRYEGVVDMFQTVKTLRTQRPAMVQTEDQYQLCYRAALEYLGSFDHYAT

[6] = target: Receptor-type tyrosine-protein phosphatase epsilon (Homo sapiens, UniProt P23469); assay: Inhibition of HPTP epsilon
Sequence of Receptor-type tyrosine-protein phosphatase epsilon (P23469 whole entry): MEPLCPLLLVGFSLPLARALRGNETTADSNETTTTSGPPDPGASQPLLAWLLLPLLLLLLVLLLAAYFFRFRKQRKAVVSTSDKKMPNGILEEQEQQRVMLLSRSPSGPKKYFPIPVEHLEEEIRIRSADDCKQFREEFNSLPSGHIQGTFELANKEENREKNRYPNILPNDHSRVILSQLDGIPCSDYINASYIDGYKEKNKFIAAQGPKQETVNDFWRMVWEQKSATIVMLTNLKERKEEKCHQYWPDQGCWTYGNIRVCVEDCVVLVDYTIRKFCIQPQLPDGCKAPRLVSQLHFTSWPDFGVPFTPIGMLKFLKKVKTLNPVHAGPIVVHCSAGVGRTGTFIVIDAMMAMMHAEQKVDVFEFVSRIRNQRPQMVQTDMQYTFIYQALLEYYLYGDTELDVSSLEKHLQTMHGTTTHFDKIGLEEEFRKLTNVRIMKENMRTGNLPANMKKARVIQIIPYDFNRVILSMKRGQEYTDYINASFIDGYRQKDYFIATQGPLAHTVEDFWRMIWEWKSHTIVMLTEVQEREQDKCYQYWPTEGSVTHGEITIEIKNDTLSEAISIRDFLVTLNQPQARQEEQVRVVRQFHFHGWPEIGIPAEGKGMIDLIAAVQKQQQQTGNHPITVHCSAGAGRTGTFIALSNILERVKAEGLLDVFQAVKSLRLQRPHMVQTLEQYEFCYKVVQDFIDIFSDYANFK

[7] = target: T4, Receptor-type tyrosine-protein phosphatase C (Homo sapiens, UniProt P08575); assay: Inhibition of CD45
T4 sequence (P08575 whole entry): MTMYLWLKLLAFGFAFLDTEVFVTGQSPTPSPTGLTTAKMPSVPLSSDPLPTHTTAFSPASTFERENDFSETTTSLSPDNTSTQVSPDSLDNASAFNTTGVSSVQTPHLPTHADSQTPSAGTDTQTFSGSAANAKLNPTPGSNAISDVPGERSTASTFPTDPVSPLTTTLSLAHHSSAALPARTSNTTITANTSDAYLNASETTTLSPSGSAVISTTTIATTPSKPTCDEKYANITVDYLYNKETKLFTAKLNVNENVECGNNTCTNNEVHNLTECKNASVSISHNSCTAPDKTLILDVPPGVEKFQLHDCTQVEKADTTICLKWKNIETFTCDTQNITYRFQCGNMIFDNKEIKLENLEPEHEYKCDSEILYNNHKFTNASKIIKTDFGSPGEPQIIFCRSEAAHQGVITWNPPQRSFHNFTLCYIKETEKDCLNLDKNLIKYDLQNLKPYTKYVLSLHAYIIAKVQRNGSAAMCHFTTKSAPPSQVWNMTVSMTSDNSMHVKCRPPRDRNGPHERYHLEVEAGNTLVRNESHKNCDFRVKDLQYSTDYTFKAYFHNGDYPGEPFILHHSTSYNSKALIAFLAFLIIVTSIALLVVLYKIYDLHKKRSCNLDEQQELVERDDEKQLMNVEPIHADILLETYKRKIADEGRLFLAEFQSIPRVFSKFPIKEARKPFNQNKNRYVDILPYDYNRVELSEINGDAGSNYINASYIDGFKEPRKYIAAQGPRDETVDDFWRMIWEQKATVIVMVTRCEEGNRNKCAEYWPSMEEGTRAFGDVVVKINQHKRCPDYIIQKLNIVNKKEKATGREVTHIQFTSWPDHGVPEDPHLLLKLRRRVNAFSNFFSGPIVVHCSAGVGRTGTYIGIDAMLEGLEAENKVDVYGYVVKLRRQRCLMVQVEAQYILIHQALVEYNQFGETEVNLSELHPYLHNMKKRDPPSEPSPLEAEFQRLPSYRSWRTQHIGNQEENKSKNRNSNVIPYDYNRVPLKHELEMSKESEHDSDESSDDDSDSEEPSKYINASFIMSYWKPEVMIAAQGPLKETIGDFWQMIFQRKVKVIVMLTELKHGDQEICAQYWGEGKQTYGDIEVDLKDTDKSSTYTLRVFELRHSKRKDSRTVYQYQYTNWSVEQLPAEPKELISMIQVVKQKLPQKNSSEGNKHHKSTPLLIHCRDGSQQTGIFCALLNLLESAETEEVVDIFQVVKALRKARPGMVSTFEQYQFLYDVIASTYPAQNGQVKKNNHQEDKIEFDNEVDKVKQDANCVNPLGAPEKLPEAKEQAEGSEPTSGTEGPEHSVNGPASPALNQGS

[8] = target: Receptor-type tyrosine-protein phosphatase gamma (Homo sapiens, UniProt P23470); assay: Inhibition of PTP gamma
[9] = target: T3, Receptor-type tyrosine-protein phosphatase F; assay: Inhibition of LAR1
[10] = target: T5, Low molecular weight phosphotyrosine protein phosphatase (Homo sapiens, UniProt P24666); assay: Inhibition of HCPTPA
T5 sequence (P24666 whole entry): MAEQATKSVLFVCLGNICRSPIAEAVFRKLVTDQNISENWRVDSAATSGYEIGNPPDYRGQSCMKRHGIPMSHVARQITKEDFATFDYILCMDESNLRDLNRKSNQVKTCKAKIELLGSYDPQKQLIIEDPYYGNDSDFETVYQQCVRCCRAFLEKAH

[11] = target: Receptor-type tyrosine-protein phosphatase alpha (Homo sapiens, UniProt P18433); assay: Inhibition HPTPA
[12] = target: T1, Tyrosine-protein phosphatase non-receptor type 2; assay: Inhibition of TCPTP

Sequence of Receptor-type tyrosine-protein phosphatase beta (P23467 whole entry): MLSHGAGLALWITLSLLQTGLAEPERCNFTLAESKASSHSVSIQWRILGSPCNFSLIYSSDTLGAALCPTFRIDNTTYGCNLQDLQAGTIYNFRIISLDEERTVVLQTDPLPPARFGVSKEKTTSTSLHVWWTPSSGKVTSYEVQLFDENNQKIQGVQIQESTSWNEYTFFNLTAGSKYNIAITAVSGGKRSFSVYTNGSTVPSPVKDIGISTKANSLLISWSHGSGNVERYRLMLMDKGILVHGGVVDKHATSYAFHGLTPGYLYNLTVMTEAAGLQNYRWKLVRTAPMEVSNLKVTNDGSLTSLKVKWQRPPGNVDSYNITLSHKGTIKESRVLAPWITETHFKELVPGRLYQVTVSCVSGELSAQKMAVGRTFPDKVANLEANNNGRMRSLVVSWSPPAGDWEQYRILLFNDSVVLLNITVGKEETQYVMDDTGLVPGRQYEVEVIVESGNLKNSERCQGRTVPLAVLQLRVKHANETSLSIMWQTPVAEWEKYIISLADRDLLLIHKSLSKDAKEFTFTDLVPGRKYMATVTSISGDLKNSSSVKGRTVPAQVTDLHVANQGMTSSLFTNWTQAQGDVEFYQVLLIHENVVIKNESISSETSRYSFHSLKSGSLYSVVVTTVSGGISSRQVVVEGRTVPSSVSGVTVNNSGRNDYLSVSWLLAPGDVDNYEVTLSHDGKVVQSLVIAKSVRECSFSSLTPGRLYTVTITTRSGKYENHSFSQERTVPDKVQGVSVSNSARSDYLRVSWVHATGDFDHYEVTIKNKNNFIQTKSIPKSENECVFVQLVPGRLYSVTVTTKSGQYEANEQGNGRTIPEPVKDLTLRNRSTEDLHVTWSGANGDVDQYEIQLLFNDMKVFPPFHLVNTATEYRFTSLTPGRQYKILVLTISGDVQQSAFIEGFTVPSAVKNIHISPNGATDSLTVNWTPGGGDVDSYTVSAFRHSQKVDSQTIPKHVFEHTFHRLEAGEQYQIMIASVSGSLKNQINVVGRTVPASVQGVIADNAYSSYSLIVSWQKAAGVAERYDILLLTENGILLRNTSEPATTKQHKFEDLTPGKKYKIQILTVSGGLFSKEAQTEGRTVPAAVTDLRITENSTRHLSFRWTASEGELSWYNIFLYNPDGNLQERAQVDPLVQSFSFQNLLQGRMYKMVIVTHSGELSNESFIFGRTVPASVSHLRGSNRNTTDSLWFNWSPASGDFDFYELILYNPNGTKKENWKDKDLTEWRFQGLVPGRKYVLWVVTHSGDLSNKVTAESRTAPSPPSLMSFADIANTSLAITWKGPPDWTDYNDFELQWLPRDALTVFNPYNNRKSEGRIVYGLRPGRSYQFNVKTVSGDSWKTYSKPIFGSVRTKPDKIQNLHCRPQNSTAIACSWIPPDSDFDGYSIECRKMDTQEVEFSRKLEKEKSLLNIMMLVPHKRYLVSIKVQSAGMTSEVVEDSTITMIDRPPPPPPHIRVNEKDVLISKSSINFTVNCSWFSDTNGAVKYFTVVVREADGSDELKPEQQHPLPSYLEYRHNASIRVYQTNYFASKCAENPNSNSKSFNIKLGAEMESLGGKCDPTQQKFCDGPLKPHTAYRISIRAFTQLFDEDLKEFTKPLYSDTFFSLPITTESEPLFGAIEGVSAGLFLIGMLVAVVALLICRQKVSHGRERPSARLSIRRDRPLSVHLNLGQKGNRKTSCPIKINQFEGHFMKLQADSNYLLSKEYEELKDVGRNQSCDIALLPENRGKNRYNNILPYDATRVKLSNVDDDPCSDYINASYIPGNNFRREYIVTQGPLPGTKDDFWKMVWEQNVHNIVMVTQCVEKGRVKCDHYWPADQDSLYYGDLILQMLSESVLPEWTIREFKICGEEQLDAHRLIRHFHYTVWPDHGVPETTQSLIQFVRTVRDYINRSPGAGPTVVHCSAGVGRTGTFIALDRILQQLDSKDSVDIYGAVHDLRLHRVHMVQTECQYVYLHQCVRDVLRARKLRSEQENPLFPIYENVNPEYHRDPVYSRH

Structure (SMILES): COC(=O)C(Cc1ccc(NS(=O)(=O)O)cc1)C(=O)OC
- IC50 [1]: 1000 nM

Structure (SMILES): COC(=O)C(Cc1ccc(NS(=O)(=O)O)cc1)(Cc1ccc(C(=O)O)cc1)C(=O)OC
- IC50 [1]: 140 nM

Structure (SMILES): COc1ccc(CC(Cc2ccc(NS(=O)(=O)O)cc2)(c2nc(C)no2)c2nc(C)no2)cc1
- IC50 [1]: 340 nM

Structure (SMILES): COC(=O)C(Cc1ccc(NS(=O)(=O)O)cc1)(Cc1cccc(S(N)(=O)=O)c1)C(=O)OC
- IC50 [1]: 300 nM

Structure (SMILES): CCOC(=O)C(Cc1ccc(NS(=O)(=O)O)cc1)(NC(=O)OC(C)(C)C)C(=O)OC (configuration not stated)
- IC50 [1]: 450 nM

Structure (SMILES): COC(=O)C(CCCS(=O)(=O)c1ccccc1)(Cc1ccc(NS(=O)(=O)O)cc1)C(=O)OC
- IC50 [1]: 150 nM

Structure (SMILES): COc1cccc(CC(Cc2ccc(NS(=O)(=O)O)cc2)(c2nc(C)no2)c2nc(C)no2)c1
- IC50 [1]: 230 nM

Structure (SMILES): CCOC(=O)C(Cc1ccc(NS(=O)(=O)O)cc1)(NC(=O)OCc1ccccc1)C(=O)OC (configuration not stated)
- IC50 [1]: 400 nM
- IC50 [2]: 78000 nM
- IC50 [3]: 12800 nM
- IC50 [4]: > 500000 nM
- IC50 [5]: 472000 nM
- IC50 [6]: > 500000 nM
- IC50 [7]: 280000 nM
- IC50 [8]: 196000 nM
- IC50 [9]: 227000 nM
- IC50 [10]: 82200 nM

Structure (SMILES): COC(=O)C(Cc1ccncc1)(Cc1ccc(NS(=O)(=O)O)cc1)C(=O)OC
- IC50 [1]: 570 nM

Structure (SMILES): CCOC(=O)C(CCNC(=O)OC(C)(C)C)(Cc1ccc(NS(=O)(=O)O)cc1)C(=O)OC (configuration not stated)
- IC50 [1]: 90 nM

Structure (SMILES): COC(=O)C(CCCSc1nnnn1-c1ccccc1)(Cc1ccc(NS(=O)(=O)O)cc1)C(=O)OC
- IC50 [1]: 200 nM

Structure (SMILES): COC(=O)C(Cc1ccc(NS(=O)(=O)O)cc1)(Cc1ccc(OC)cc1)C(=O)OC
- IC50 [1]: 390 nM

Structure (SMILES): COC(=O)C(Cc1ccc(NS(=O)(=O)O)cc1)(Cc1cccc(OC)c1)C(=O)OC
- IC50 [1]: 330 nM

Structure (SMILES): Cc1noc(C(Cc2ccc(NS(=O)(=O)O)cc2)(Cc2ccc(NS(=O)(=O)O)cc2)c2nc(C)no2)n1
- IC50 [1]: 80 nM

Structure (SMILES): COC(=O)C(Cc1ccc(NS(=O)(=O)O)cc1)(Cc1ccc(NS(=O)(=O)O)cc1)C(=O)OC
- IC50 [1]: 60 nM

Structure (SMILES): COC(=O)C(Cc1ccc(NS(=O)(=O)O)cc1)(Cc1cccc(NS(=O)(=O)O)c1)C(=O)OC
- IC50 [1]: 100 nM

Structure (SMILES): COC(=O)CCCC(Cc1ccc(NS(=O)(=O)O)cc1)(C(=O)OC)C(=O)OC
- IC50 [1]: 380 nM

Structure (SMILES): COC(=O)C(CCCS(=O)(=O)c1nnnn1-c1ccccc1)(Cc1ccc(NS(=O)(=O)O)cc1)C(=O)OC
- IC50 [1]: 80 nM

Structure (SMILES): COC(=O)C(CCCS(C)(=O)=O)(Cc1ccc(NS(=O)(=O)O)cc1)C(=O)OC
- IC50 [1]: 420 nM

Structure (SMILES): COC(=O)C(Cc1ccc(NS(=O)(=O)O)cc1)(Cc1ccc(S(N)(=O)=O)cc1)C(=O)OC
- IC50 [1]: 430 nM

Structure (SMILES): CCOC(=O)CC(Cc1ccc(NS(=O)(=O)O)cc1)(C(=O)OC)C(=O)OC
- IC50 [1]: 230 nM
- IC50 [2]: 109000 nM
- IC50 [3]: 16200 nM
- IC50 [4]: > 500000 nM
- IC50 [5]: > 500000 nM
- IC50 [6]: > 500000 nM
- IC50 [7]: 126000 nM
- IC50 [8]: 200000 nM
- IC50 [9]: 288000 nM
- IC50 [10]: 4800 nM

Structure (SMILES): COC(=O)C(Cc1ccccc1)(Cc1ccc(NS(=O)(=O)O)cc1)C(=O)OC
- IC50 [3]: 6100 nM
- IC50 [11]: 900 nM
- IC50 [12]: 19400 nM

Structure (SMILES): COC(=O)c1cccc(CC(Cc2ccc(NS(=O)(=O)O)cc2)(C(=O)OC)C(=O)OC)c1
- IC50 [1]: 290 nM

Structure (SMILES): Cc1noc(C(Cc2ccc(NS(=O)(=O)O)cc2)(Cc2cccc(C#N)c2)c2nc(C)no2)n1
- IC50 [1]: 210 nM

Structure (SMILES): COC(=O)C(CCCc1ccccc1)(Cc1ccc(NS(=O)(=O)O)cc1)C(=O)OC
- IC50 [1]: 150 nM
- IC50 [2]: 15300 nM
- IC50 [3]: 2300 nM
- IC50 [4]: > 500000 nM
- IC50 [5]: > 500000 nM
- IC50 [6]: > 500000 nM
- IC50 [7]: 29000 nM
- IC50 [8]: 93000 nM
- IC50 [9]: 409000 nM
- IC50 [10]: 7700 nM

Structure (SMILES): COC(=O)C(COCc1ccccc1)(Cc1ccc(NS(=O)(=O)O)cc1)C(=O)OC
- IC50 [1]: 270 nM

Structure (SMILES): Cc1noc(C(CCCc2ccccc2)(Cc2ccc(NS(=O)(=O)O)cc2)c2nc(C)no2)n1
- IC50 [1]: 70 nM

Structure (SMILES): COC(=O)c1ccc(CC(Cc2ccc(NS(=O)(=O)O)cc2)(C(=O)OC)C(=O)OC)cc1
- IC50 [1]: 410 nM
